As usually defined, the IC50 is the midpoint of a concentration-inhibition curve. Broadly, the MIC is the smallest concentration in the dilution series that meets the test's criterion for growth inhibition.

We go through three compounds from patent publication US8703825B2, “Compounds, use thereof as medicaments, and method of preparation thereof” (Universite de Lorraine, priority 2008, dated 2014).

Type in all cases: cell-based
The subject of assay [1] is Staphylococcus aureus ATCC 25923. The experiment in a line: MIC by microdilution in liquid medium (CLSI / CA-SFM). Conditions: S. aureus ATCC 25923; HaCaT cell lines, 24 h exposure.
For assay [2], the system named is HaCaT cells (human keratinocytes). Briefly: Cellular viability test (MTT test). To be noted: read-out: IC50 viability test (with MTT). An excerpt:
(§1) The eukaryotic cells used in our study are HaCaT cells (human keratinocytes), which were kindly supplied by the Pierre Fabre Institute (Toulouse, France); and MRC-5 cells (human embryonic fibroblasts), which were obtained from the company BioMérieux (Lyons, France). These cells are cultivated in DMEM (“Dulbecco's modified Eagle's medium”, Invitrogen 61965) for the HaCaT cells, and MEM (“modified Eagle's medium”, Invitrogen 41090); 10% of fetal calf serum (FCS, Invitrogen, 10270, Batch 40Q5150K) in a humid chamber at 37° C., under 5% CO2. The HaCaT and MRC-5 cells were seeded at 10^4 cells/well in 96-well plates (Sarstedt 831835). After 48 h of growth, the culture medium is withdrawn and replaced with the various “test” solutions (volume=100 μL). After contact time of 24, 48 and/or 168 H,the viability or cytotoxicity tests are carried out.
(§2) a) Cellular Viability Tests (MTT Test)
(§3) In order to evaluate the effect of the various compounds tested on the viability of HaCaT and MRC-5 cells, the MTT technique (3-[4,5-dimethylthiazol-2-yl]-2,5-diphenyltetrazolium bromide; MTT, Aldrich, 135038), described by Mosmann [Mosmann T. Rapid colorimetric assay for cellular growth and survival: application to proliferation and cytotoxicity assays. J Immunol Methods. 1983; 65: 55-63] and modified by Grare et al. [Grare M, Mourer M, Fontanay S, Regnouf-de-Vains J B, Finance C, Duval R E. In vitro activity of para-guanidinoethylcalix[4]arene against susceptible and antibiotic-resistant Gram-negative and Gram-positive bacteria. J Antimicrob Chemother. 2007; 60: 575-81], was used.
(§4) It is based on the reduction of yellow tetrazolium salts to purple crystals of formazan, mainly by mitochondrial dehydrogenases. The quantity of formazan formed is proportional to the number of live cells. After the contact times of 24, 48 and/or 168 h with the different concentrations of the test molecules, 10 nI, of MTT (at 5 mg/mL) is added to each well and the plates are placed at 37° C. After incubation for 4 H,the insoluble crystals of formazan that have formed are dissolved by adding 100 μL SDS to each well. The absorbance is measured at 540 nm with a reference wavelength at 690 nm, using an ELISA plate reader (Multiskan E X, Thermo Electron Corporation, France). The results are the mean of the values obtained for 8 wells per concentration and per unit time. Each experiment was carried out 3 times.

The test system of assay [3] is MRC-5 cells (human embryonic fibroblasts). The experiment in a line: Cellular viability test (MTT test). Conditions: read-out: IC50 viability test (with MTT).
Text: as §1, §2, §3, §4
(Tetrazolium dyes change colour on reduction, which living cells bring about.)

For assay [4], the system named is Escherichia coli ATCC 25922. The experiment in a line: MIC by microdilution in liquid medium (CLSI / CA-SFM). To be noted: E. coli ATCC 25922; HaCaT cell lines, 24 h exposure. (Dilution methods test growth across graded concentrations, often in twofold steps.)
The test system of assay [5] is penicillinase-producing E. coli (EcR1). Briefly: MIC by microdilution, clinical isolate. To be noted: Escherichia coli. As for the experimental part: (§5) The study also included 5 clinical isolates, obtained from rectal samples and/or from haemoculture: • […] E. coli (EcR1), • methicillin-resistant S. aureus (mecA gene) (SaR1), • vancomycin-resistant E. faecium (vanB gene) (EfR1), • E. faecalis resistant to teicoplanin and to vancomycin (vanA gene) (EfR2), and • P. aeruginosa overexpressing an efflux pump (PaRl).
The isolates were selected on the basis of their resistance profile. The resistance profiles were determined on VITEK2 (BioMérieux, France).
The bacteria are cultivated either on Mueller-Hinton agar (Difco, 225250), or in Mueller-Hinton broth (Difco, 275730), at 35° C. [Grare M, Mourer M, Fontanay S, Regnouf-de-Vains J B, Finance C, Duval R E. In vitro activity of para-guanidinoethylcalix[4]arene against susceptible and antibiotic-resistant Gram-negative and Gram-positive bacteria. J. Antimicrob Chemother. 2007; 60: 575-81].
The various molecules tested were prepared in the form of aqueous solution at 10^−2 mol/L. The solutions used for the biological tests are freshly prepared, and stored for a week at most, at 4° C. The solutions are filtered through a filter with pores of 0.22 μm (Millex®GP; 0.22 μm; Millipore; France) before each test.
(§6) Procedure for determining the Minimum Inhibitory Concentration (MIC)
(§7) The minimum inhibitory concentrations (MIC) were determined by the standardized method of microdilution in liquid medium (96-well microplate, U-shaped bottom, Greiner), in Mueller-Hinton broth, with a final inoculum of 10^5-10^6 CFU/mL, depending on the bacterial species, in accordance with the recommendations of the CLSI.
(§8) For the determination of MIC, bacterial suspensions are prepared from an isolated colony, taken from a Mueller-Hinton agar, taken up in 5 mL of Mueller-Hinton broth. After 24 h of growth, the bacterial suspensions are diluted in sterile distilled water in order to obtain an inoculum of 10^5-10^6 CFU/mL. The purity of the bacterial suspensions is tested by isolation on agar and Gram staining.
(§9) The results are the mean value of 4 independent experiments.

Assay [6] deals with Enterococcus faecalis ATCC 29212. The experiment in a line: MIC by microdilution in liquid medium (CLSI / CA-SFM). Conditions: E. faecalis ATCC 29212; HaCaT cell lines, 24 h exposure.
Assay [7] deals with Pseudomonas aeruginosa ATCC 27853. The assay is described as above. To be noted: P. aeruginosa ATCC 27853; HaCaT cell lines, 24 h exposure.
The test system of assay [8] is Gram-positive and Gram-negative bacteria (reference strains and clinical isolates). Briefly: Antibacterial activity overall (MIC determination). To be noted: summary of MIC results.
Text: According to the joint recommendations: • of the “Comite de l′Antibiogramme de la Société Française de Microbiologie” (Antibiogram Committee of the French Society of Microbiology) (CA-SFM) [CA-SFM. Communique 2007 (Edition of January 2007). http://www.sfm.asso.fr] and, • of the “Clinical and Laboratory Standards Institute” (CLSI, formerly “National Committee for Clinical Laboratory Standards” or NCCLS) [NCCLS. 2003. Methods for dilution antimicrobial susceptibility tests for bacteria that grow aerobically; approved standard M7-A6, 6th ed. National Committee for Clinical Laboratory Standards, Wayne, Pa., USA.], five reference bacterial strains were used for the study: Escherichia coli ATCC 25922, Pseudomonas aeruginosa ATCC 27853, Staphylococcus aureus ATCC 25923 & ATCC 29213 and Enterococcus faecalis ATCC 29212.
as §5, §6, §7, §8, §9

Setting [9] is: clinical isolate, penicillinase-producing E. coli, read-out: MIC.

In brackets after ≈: the same amount, converted by molar mass. Entries after “also recorded” stand apart in the source; their conditions may differ. Read-outs that look alike come from different tables or passages of the source.

In the case of `N=C(N)c1ccc(OCCCCCCOc2ccc(C(=N)N)cc2)cc1` [HX, hexamidine], the “Selectivity index (SI=IC50/MIC)” value in assay [1] was 8-16; in assay [4], 4-8; in assay [6] it was 16-32; in assay [7] it was 1-2. For the same compound, the concentration for half-maximal inhibition (IC50) was 32 to 64 µg/mL (≈ 90.3 to 181 µM) in assay [2] (24 h); 16 to 32 µg/mL (≈ 45.1 to 90.3 µM) in assay [2] (48 h); 4 to 8 µg/mL (≈ 11.3 to 22.6 µM) in assay [2] (168 h); 32 to 64 µg/mL (≈ 90.3 to 181 µM) in assay [3] (MRC5, 24 h); 16 to 32 µg/mL (≈ 45.1 to 90.3 µM) in assay [3] (MRC5, 48 h); 4 to 8 µg/mL (≈ 11.3 to 22.6 µM) in assay [3] (MRC5, 168 h). For the same compound, the lowest concentration to inhibit growth in assay [5] (MIC) was 8 µg/mL (≈ 22.6 µM).
`N=C(N)NCCc1ccc(OCCCCCCOc2ccc(CCNC(=N)N)cc2)cc1` [compound 6, 1,6-bis(4-(2-guanidinoethyl)phenoxy)hexane]: the “Selectivity index (SI=IC50/MIC)” value is 8-16 in assay [1], 1-2 in assay [4], 0.5-1^ in assay [6] and 0.25-0.5 in assay [7]. For the same compound, the half-maximal inhibitory concentration (IC50) in assay [2] (24 h) was 4 to 8 µg/mL (≈ 9.08 to 18.2 µM); in assay [2] (48 h) it was 4 to 8 µg/mL (≈ 9.08 to 18.2 µM); in assay [2] (168 h), 1 to 2 µg/mL (≈ 2.27 to 4.54 µM); in assay [3] (MRC5, MRC-5, 24 h) it was 8 to 16 µg/mL (≈ 18.2 to 36.3 µM); in assay [3] (MRC5, MRC-5, 48 h), 4 to 8 µg/mL (≈ 9.08 to 18.2 µM); in assay [3] (MRC5, MRC-5, 168 h), 0.5 to 1 µg/mL (≈ 1.13 to 2.27 µM). Besides, the “antibacterial activity (in words)” value in assay [8] was “maintains comparable activity on the clinical isolates; also recorded: better overall than hexamidine and is comparable to that of chlorhexidine”. For the same compound, the minimal inhibitory concentration (MIC) in assay [5] (setting [9]) was 4 µg/mL (≈ 9.08 µM).
As to `[H]/N=C(\N/C(=N/[H])NCCCCCCNC(=N)NC(=N)Nc1ccc(Cl)cc1)Nc1ccc(Cl)cc1` [CHX, chlorhexidine], the “Selectivity index (SI=IC50/MIC)” value in assay [1] is recorded as 32-64; in assay [4], 64-128; in assay [6], 8-16; in assay [7], 2-4. Moreover, the half-inhibitory concentration (IC50) in assay [2] (24 h) was 8 to 16 µg/mL (≈ 15.8 to 31.7 µM); in assay [2] (48 h), 4 to 8 µg/mL (≈ 7.91 to 15.8 µM); in assay [2] (168 h) it was 2 to 4 µg/mL (≈ 3.96 to 7.91 µM); in assay [3] (MRC5, MRC-5, 24 h), 16 to 32 µg/mL (≈ 31.7 to 63.3 µM); in assay [3] (MRC5, MRC-5, 48 h), 8 to 16 µg/mL (≈ 15.8 to 31.7 µM); in assay [3] (MRC5, MRC-5, 168 h), 1 to 2 µg/mL (≈ 1.98 to 3.96 µM). For the same compound, the “antibacterial activity (in words)” value in assay [8] is “broad-spectrum antibacterial activity”. The MIC in assay [5] (setting [9]) came to 0.5 µg/mL (≈ 0.989 µM).
